Source: paper PMC9572083, “Hybrids of 1,4-Quinone with Quinoline Derivatives: Synthesis, Biological Activity, and Molecular Docking with DT-Diaphorase (NQO1)” (Molecules, 2022)

Columns and labels:
[1] = molecular target: T1, NQO1 (DT-diaphorase, EC 1.6.5.5, human recombinant) (Homo sapiens, UniProt P15559); test: NQO1 substrate NADPH recycling enzymatic assay; type: biochemical; details: for NQO1 activity (enzymatic conversion rate): compound 10 µmol/L, pH 7.4, 25 °C, absorbance at 340 nm
T1 construct: purchased Sigma-Aldrich
Experimental: The interaction between 1,4-quinone moiety of hybrid and NQO1 protein leads to reduction in quinone to hydroquinone and production of reactive oxide form (ROS). According to a literature method, the ability of hybrids 11–14 and streptonigrin (ST) to be a substrate for NQO1 was examined by measuring the oxidation of NADPH to NADP^+ [29, 32].
Compounds 11–14 (10 µmol/L) were tested as NQO1 substrates using the NADPH recycling assay according to the literature method. The recombinant NQO1 (DT-diaphorase, EC 1.6.5.5, human recombinant, Sigma-Aldrich) was used, and the oxidation of NADPH to NADP^+ was measured at the absorption wavelength of 340 nm on the BioTek 800TS microplate reader (BioKom, Janki, Poland). Compounds were dissolved in dimethyl sulfoxide (2 µL) and added to the 96-well plate. The NQO1 protein (1.4 µg/mL) in 50 mmol/L potassium phosphate buffer (pH = 7.4) was added to each well (198 µL) (Nunc Thermo Fisher Scientific, Waltham, MA, USA). Once the 96-well plate was filled with the assay solutions, except the NADPH solution, it was placed into the instrument and left to sit for 5 min before starting the measurements. The enzymatic reaction was initiated by automatically dispensing the NADPH solution into the wells, and data were recorded at 10 s intervals for 5 min at 25 °C. The linear part of the absorbance vs. time graphs (the first 20 s to 1 min) was fitted, and the slopes were calculated. NADPH oxidation rates were compared with reactions lacking the tested compound. Initial velocities were calculated, and data were expressed as µmol NADPH/µmol NQO1/min. All reactions were carried out at least in triplicate.

[2] = tested on: Colo-829 cells; test: Cytotoxic activity, WST-1 assay, melanoma Colo-829; type: cell-based, human; details: for SI (IC50 HFF-1/IC50 cancer line) Colo-829: HFF-1 vs Colo-829; for IC50: Homo sapiens, melanoma Colo-829, 72 h, WST-1
Source text: (§1) Anticancer activity of compounds 11–14 was designated against following human cancer cell lines: melanoma (Colo-829), ovarian cancer (SK-OV-3), breast cancer (MDA-MB-231, T47D and MCF-7), lung cancer (A549) and normal fibroblasts (HFF-1). As a reference substance, the doxorubicin was used. The results are presented in Table 1 as IC50, where IC50 means the concentration of tested compounds (µM) causing the growth inhibition of 50% for given tumor cells. The negative value (Neg.) means that the IC50 is higher than 30 µM. Selectivity index (SI) as the ratio of the IC50 for normal fibroblast (HFF-1) to IC50 of the corresponding cell line, is presented in Table S2.
(§2) Compounds 7–14 and doxorubicin were tested for cytotoxic activity in vitro against panel of human cancer cell lines: melanoma (Colo-829, ATCC, Rockville, MD, USA), ovarian cancer (SK-OV-3, ATCC, Rockville, MD, USA), breast cancer (T47D, MCF-7, and MDA-MB-231, ATCC, Rockville, MD, USA) and lung cancer (A549, ATCC, Rockville, MD, USA). The cultured cells were kept at 37 °C and 5% CO2. The cells were seeded (5 × 10^4 cells/well/[…] DMEM supplemented with 10% FCS and streptomycin/penicillin) using 96-well plates (Nunc Thermo Fisher Scientific, Waltham, MA, USA). The tested compounds 7–14 with the concentration of 1–100 µg/mL DMSO were inducted with the cancer cells for 72 h. The WST-1-formazan (proliferation reagent WST-1 assay, Roche Diagnostics, Mannheim, Germany) was detected using a microplate reader at 450 nm. Results were expressed as a mean value of at least three independent experiments performed in triplicate.

[3] = tested on: SK-OV-3 cells; test: Cytotoxic activity, WST-1 assay, ovarian cancer SK-OV-3; type: cell-based, human; details: for SI (IC50 HFF-1/IC50 cancer line) SK-OV-3: HFF-1 vs SK-OV-3; for IC50: Homo sapiens, ovarian cancer SK-OV-3, 72 h, WST-1
Source text: as §1, §2

[4] = tested on: MDA-MB-231 cells; test: Cytotoxic activity, WST-1 assay, breast cancer MDA-MB-231; type: cell-based, human; details: for SI (IC50 HFF-1/IC50 cancer line) MDA-MB-231: HFF-1 vs MDA-MB-231; for IC50: Homo sapiens, breast cancer MDA-MB-231, 72 h, WST-1
Source text: as §1, §2

[5] = tested on: T47D cells; test: Cytotoxic activity, WST-1 assay, breast cancer T47D; type: cell-based, human; details: for SI (IC50 HFF-1/IC50 cancer line) T47D: HFF-1 vs T47D; for IC50: Homo sapiens, breast cancer T47D, 72 h, WST-1
Source text: as §1, §2

[6] = tested on: MCF-7 cells; test: Cytotoxic activity, WST-1 assay, breast cancer MCF-7; type: cell-based, human; details: for SI (IC50 HFF-1/IC50 cancer line) MCF-7: HFF-1 vs MCF-7; for IC50: Homo sapiens, MCF7, breast cancer MCF-7, 72 h, WST-1
Source text: as §1, §2

[7] = tested on: A549 cells; test: Cytotoxic activity, WST-1 assay, lung cancer A549; type: cell-based, human; details: for SI (IC50 HFF-1/IC50 cancer line) A549: HFF-1 vs A549; for IC50: Homo sapiens, lung cancer A549, 72 h, WST-1
Source text: as §1, §2

[8] = tested on: HFF-1 cells; test: Cytotoxic activity, WST-1 assay, normal fibroblasts HFF-1; type: cell-based; details: Homo sapiens, normal fibroblasts HFF-1, 72 h
Source text: as §1, §2

T1 sequence (P15559 whole entry): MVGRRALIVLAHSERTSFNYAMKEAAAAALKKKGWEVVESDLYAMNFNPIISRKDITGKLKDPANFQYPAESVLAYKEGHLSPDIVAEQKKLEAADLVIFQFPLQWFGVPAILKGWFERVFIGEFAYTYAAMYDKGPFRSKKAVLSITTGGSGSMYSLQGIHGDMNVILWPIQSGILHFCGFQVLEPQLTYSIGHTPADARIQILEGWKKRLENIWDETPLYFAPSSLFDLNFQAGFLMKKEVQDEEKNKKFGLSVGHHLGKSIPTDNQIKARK

| SMILES | NQO1 activity (enzymatic conversion rate) [1] | SI (IC50 HFF-1/IC50 cancer line) Colo-829 [2] | IC50 [2] | SI (IC50 HFF-1/IC50 cancer line) SK-OV-3 [3] | IC50 [3] | SI (IC50 HFF-1/IC50 cancer line) MDA-MB-231 [4] | IC50 [4] | SI (IC50 HFF-1/IC50 cancer line) T47D [5] | IC50 [5] | SI (IC50 HFF-1/IC50 cancer line) MCF-7 [6] | IC50 [6] | SI (IC50 HFF-1/IC50 cancer line) A549 [7] | IC50 [7] | IC50 [8] | Enzymatic conversion rate relative to the 2-methyl-5,8-quinolinedione analogue ([1]; 11c vs 12c, 11e vs 12e) | Activity against MCF-7 relative to A549 ([6]; fold more active against MCF-7 than A549) |
| --- | --- | --- | --- | --- | --- | --- | --- | --- | --- | --- | --- | --- | --- | --- | --- | --- |
| O=C1C(Cl)=C(Oc2cccc3ccc(N4CCOCC4)nc23)C(=O)c2ncccc21 [Compound 11f, 6-chloro-7-{[2-(morpholin-4-yl)quinolin-8-yl]oxy}quinoline-5,8-dione] | 113 ± 19 µmol NADPH/µmol NQO1/min | 1.83 | 14 ± 1.16 µM | 2.35 | 10.9 ± 0.48 µM | 1.86 | 13.8 ± 1.09 µM | 1.38 | 18.6 ± 0.62 µM | 1.58 | 16.21 ± 0.12 µM | 2.03 | 12.6 ± 0.82 µM | 25.64 ± 0.19 µM | – | – |
| O=C1C(Cl)=C(Oc2cccc3ccc(N4CCOCC4)nc23)C(=O)c2cnccc21 [Compound 13f, 6-chloro-7-{[2-(morpholin-4-yl)quinolin-8-yl]oxy}isoquinoline-5,8-dione] | 143 ± 26 µmol NADPH/µmol NQO1/min | 8.76 | 2.1 ± 0.06 µM | 14.95 | 1.23 ± 0.08 µM | 141.46 | 0.13 ± 0.05 µM | 8.55 | 2.15 ± 0.06 µM | 17.85 | 1.03 ± 0.19 µM | 15.07 | 1.22 ± 0.08 µM | 18.4 ± 0.35 µM | – | – |
| O=C1C(Cl)=C(Oc2cccc3ccc(N4CCCC4)nc23)C(=O)c2ncccc21 [Compound 11e, 6-chloro-7-{[2-(pyrrolidin-1-yl)quinolin-8-yl]oxy}quinoline-5,8-dione] | 1082 ± 51 µmol NADPH/µmol NQO1/min | 0.76 | 15 ± 0.32 µM | 6.66 | 1.72 ± 0.09 µM | 5.81 | 1.97 ± 0.13 µM | 0.55 | 20.8 ± 1.03 µM | 5.64 | 2.03 ± 0.03 µM | 0.94 | 12.1 ± 1.06 µM | 11.5 ± 0.69 µM | 1.8 times | ~6 times |
| O=C1C(Cl)=C(Oc2cccc3ccc(N4CCCC4)nc23)C(=O)c2cnccc21 [Compound 13e, 6-chloro-7-{[2-(pyrrolidin-1-yl)quinolin-8-yl]oxy}isoquinoline-5,8-dione] | 214 ± 21 µmol NADPH/µmol NQO1/min | 0.79 | 19.6 ± 1.32 µM | 0.98 | 15.8 ± 0.26 µM | 0.93 | 16.6 ± 0.38 µM | – | > 30 µM | 0.92 | 16.9 ± 0.5 µM | 1.11 | 14 ± 0.26 µM | 15.5 ± 0.72 µM | – | – |
| Cc1ccc2c(n1)C(=O)C(Oc1cccc3ccc(N4CCCC4)nc13)=C(Cl)C2=O [Compound 12e, 6-chloro-2-methyl-7-{[2-(pyrrolidin-1-yl)quinolin-8-yl]oxy}quinoline-5,8-dione] | 600 ± 35 µmol NADPH/µmol NQO1/min | 11.48 | 1.53 ± 0.08 µM | 16.72 | 1.05 ± 0.06 µM | 11.71 | 1.5 ± 0.15 µM | 1.01 | 17.4 ± 1.3 µM | 9.29 | 1.89 ± 0.23 µM | 1.16 | 15.1 ± 0.39 µM | 17.6 ± 1.05 µM | – | – |
